From patent publication US20110257146A1, “Method of Treating Kcnq Related Disorders Using Organozinc Compounds” (The johns Hopkins University, priority 2006, published 2011)
Like-named read-outs stand apart in the source and are kept apart here.

What was measured:
TRPM8 = TRPM8 (Homo sapiens, UniProt Q7Z2W7); conditions: shift from 32 mV; cited from earlier work
KCNQ2 [1] = biological target: T1, KCNQ2 (Rattus norvegicus, UniProt O88943); assay: Whole-cell voltage clamp of CHO cells expressing KCNQ2; type: cell-based; parameters: expressed in transfected cells; host or cells: CHO cells; conditions: for effect on KCNQ2 current amplitude of metal salt added to sodium pyrithione perfusion: metal salt (ZnSO4 10 μM) supplemented to 20 μM sodium pyrithione
Method: Cell culture and transient transfection—Chinese Hamster Ovary (CHO) cells were grown in 50/50 DMEM/F12 (Cellgro) with 10% FBS (Gibco), 100 U/ml penicillin (Cellgro), 100 μg/ml streptomycin (Cellgro) and 2 mM L-glutamine (Gibco). At 24 hours before transfection, cells were split and plated in 60 mm dishes and were transfected with Lipofectamine2000™ reagent (Invitrogen) according to the manufacturer's instruction. At 24 hours after transfection, cells were split and re-plated onto coverslips coated with poly-L-lysine (Sigma). Plasmid expressing CD4 cDNA as a marker was cotransfected with the channel cDNAs of hKCNQ1 (from Dr. Michael Sanguinetti), hKCNQ4 (from Dr. Vitya Vardanyan), rKCNQ2, rKCNQ3, and hKCNQ5 (from Drs. David McKinnon, Mark Shapiro, and Thomas Jentsch). Prior to recording, anti-CD4 Dynabeads (Dynal. Biotech. Inc.) were added into the medium to allow for identification of the transfected cells. Stable lines expressing Kv2.1, hERG, and Kv4.2 were generated by standard protocols using pcDNA3.1 and maintained at complete medium supplemented with 500 μg/ml G418. The N-type calcium channel stable line was a kind gift from Drs. Diane Lipscombe and David Yue.
(§1) Electrophysiological Recording—Standard whole-cell recording was used. Pipettes were pulled from borosilicate glass capillaries (TW150-4, World Precision Instruments, Sarasota, Fla.). When filled with the intracellular solution, the pipettes have resistances of […]. During the recording, constant perfusion of extracellular solution was maintained using a BPS perfusion system (ALA, Westbury, N.Y.). Pipette solution contained (mM): KCl 145, MgCl2 1, EGTA 5, HEPES 10, MgATP 5 (pH 7.3); extracellular solution contained (mM): NaCl 140, KCl 3, CaCl2 2, MgCl2 1.5, HEPES 10, glucose 10 (pH 7.4). Current and voltage were recorded using an Axopatch-200A amplifier, filtered at 1 kHz and digitized using a DigiData 1322A with pClamp 9.2 software (Axon Instruments, Foster City, Calif.). Series resistance compensation was also used and set to 60-80%.
Data and Statistical Analysis—Patch-clamp data were preprocessed using Clampfit 9.2 (Axon Instruments, Foster City, Calif.) and then analyzed in Origin 7 (OriginLab, Northampton, Mass.). The activation curve was fitted by the Boltzmann equation: G=(Gmax−Gmin)/[1+exp[(V−V1/2)/S]]+Gmin, where Gmax is the maximum conductance, Gmin is the minimum conductance, V1/2 is the voltage for half of the total numbers of channels to open, and S is the slope factor. The dose response curve was fitted by the Hill equation: E=Emax/(1+(EC50/C)^P), where Emax is the maximum response, C is the drug concentration, EC50 is the drug concentration producing half of the maximum response, and P is the Hill coefficient. The deactivation trace was fitted by the standard exponential equation: I(t)=ΣIi*exp(−t/τi), where I is the current, t is the time and τ is the time constant. Data are presented as means±SE. Significance was estimated using paired two-tailed Student's t-test.

[2] = In vivo Geller conflict test for anxiolytics; parameters: species or system rats; conditions: positive control
Method: In the Geller conflict test (see, e.g., Geller & Seifter, Psychophamracologia 1:482-492 (1960: Pollard & Howard, Psychopharmacology 62:117-121 (1979)), rats are trained to press a lever to receive food pellets during daily 1 hour sessions. The sessions are divided into punished and unpunished phases. During the four, three-minute punished periods, a light signals that each lever press will produce both a pellet and a foot shock (punishment), which reduces lever pressing. The number of punished lever presses on test days (when test compound is administered) is compared to the mean on baseline days. The positive control, chlordiazepoxide, increases punished lever pressing by >50%. A compound that produces an increase of approximately 40% or greater is generally considered to be of interest as a rapid-onset anxiolytic.
A compound with selective KCNQ1 channel opening activity increases punished responding in a dose-dependent manner. The increase in punished responding is statistically significant (paired t-test p<0.05) at 10, 17, 30, and 56 mg/kg PO with increases of 40% or greater at 30 and 56 mg/kg.

hippocampal neurons = assay: Membrane potential and elicited action potentials of isolated hippocampal neurons; type: cell-based, rat; conditions: 15 μM linopirdine added after 10 μM ZnPy
Method: FIG. 10. ZnPy potentiation of native M-current. A. M current recorded from an isolated rat dorsal root ganglion neuron, Vh was −60 mV, stepped to −20 mV, followed by a step to −50 mV, and stepped back to −20 mV. B. Histograms show M-current amplitudes in the presence and absence of 10 μM ZnPy (n=10, * p<0.001). M-current amplitudes were measured by fitting the IM relaxation with an exponential equation. The recording bath solution includes 1 μM TTX, 0.2 mM TEA, 1 mM 4-AP, 50 μM CNQX, and 10 μM bicuculline. C. Membrane potential of an isolated hippocampal neuron was monitored when 10 μM ZnPy was applied in bath solution followed by the addition of 15 μM linopirdine. D. Action potentials elicited by 200 pA current injection to a patched hippocampal neuron. The ZnPy treatments are as indicated.
Neuron Culture—Dorsal root ganglia (DRG) was collected from fourteen-day-old CD rat and incubated in collagenase (sigma, 500 U/ml, 15 min) and then trypsin (Sigma, 1 mg/ml, 30 min) at 37° C. Single DRG neurons were isolated by mechanical trituration with a fire-polished glass Pasteur pipette. Hippocampal tissue was dissected out from CD rat postnatal day 0. The tissue was digested with papain (Worthington Biochem, 20 U/ml, 30 min) and resuspended into single cells. The single-cell suspension was plated onto a monolayer of glial cells that were growing on coated cover slips. Cytosine-1-D-arabinofuranoside at 5 μM was added into the culture medium 24-48 hours later to arrest glial cell proliferation. The culture medium consisted of Neurobasal™ medium with B-27 supplement (Gibco), penicillin/streptomycin and 2 mM L-glutamine. All cells were maintained at 37° C. with 5% CO2 prior to recording.
Electrophysiological Recording—Standard whole-cell recording was used. Pipettes were pulled from borosilicate glass capillaries (TW150-4, World Precision Instruments, Sarasota, Fla.). […] Current and voltage were recorded using an Axopatch-200A amplifier, filtered at 1 kHz and digitized using a DigiData 1322A with pClamp 9.2 software (Axon Instruments, Foster City, Calif.). […]

KCNQ2 [3] = biological target: T1, KCNQ2; assay: Single channel outside-out patch recording of KCNQ2; type: cell-based; parameters: expressed in transfected cells; host or cells: CHO cells; conditions: 50 μM linopirdine
Method: For single channel recording procedure, outside-out patch recording was used. The pipettes had resistances of 7-15 MΩ when filled with the intracellular solution of the following composition (mM): KCl 145, MgCl2 1, EGTA 5, HEPES 10, MgATP 5 (pH 7.3). Extracellular solution contained (mM): NaCl 150, KCl 5, CaCl2 2, MgCl2 1, HEPES 10, glucose 10 (pH 7.4). Current and voltage were recorded using an Axopatch-200B amplifier, sample at 4 kHz and filtered at 200 Hz, and digitized using a DigiData 1322A with pClamp 9.2 software (Axon Instruments, Foster City, Calif.).
The open probability (Po) and single channel current (i) were calculated by fitting all-point histograms with single- or multi-Gaussian curves. The ratio of the area under the fitted ‘open’ Gaussian to the total area under the entire Gaussian was taken as Po, and the difference between the fitted “closed” and “open” peaks was taken as i, single channel conductance (γ) was calculated by the equation: γ=i/(V−V5).

KCNQ2(A306T) = biological target: T2, KCNQ2(A306T) (Rattus norvegicus, UniProt O88943, A306T); assay: Whole-cell recording of KCNQ2(A306T) mutant in CHO cells; type: cell-based; conditions: retigabine
T2 construct: expressed in transfected cells; host or cells: CHO cells
Method: FIG. 9. KCNQ2 point mutants selectively lose ZnPy sensitivity. […] Each mutation site was indicated based on the predicted transmembrane regions. Dashed line indicates the potentiation level of wt KCNQ2 channel in the absence of ZnPy. […] C. Modeling of the S5-pore-S6 region of KCNQ2.
(§2) FIG. 11. ZnPy effects on BFNC mutant channels expressed in CHO cells. A. whole-cell currents of KCNQ2(R207W), KCNQ2(Y284C), and KCNQ2(A306T) were recorded in the absence (left) and presence (right) of 10 μM ZnPy, Vh was −80 mV, in 10 mV voltage steps from −70 mV to +50 mV. B. a histogram plotting potentiation effects on KCNQ2 wild type (wt) and BFNC mutants (R207W, Y284C and […]) by ZnPy (filled box) and retigabine (open box) (n≧4, * p<0.001, ** p<0.05).
(§3) Mutagenesis—Starting from KCNQ cDNAs, the KCNQ2 point mutants were constructed by recombinant PCR and verified by sequencing.
as §1

KCNQ2(R207W) = biological target: T3, KCNQ2(R207W) (Rattus norvegicus, UniProt O88943, R207W); assay: Whole-cell recording of KCNQ2(R207W) BFNC mutant in CHO cells; type: cell-based; conditions: retigabine
T3 construct: expressed in transfected cells; host or cells: CHO cells, transient
Method: as §2, §3
as §1, with “Series resistance compensation was also used and set to 60-80%.” left out

KCNQ2(Y284C) = biological target: T4, KCNQ2(Y284C) (Rattus norvegicus, UniProt O88943, Y284C); assay: Whole-cell recording of KCNQ2(Y284C) BFNC mutant in CHO cells; type: cell-based; conditions: retigabine
T4 construct: expressed in transfected cells; host or cells: CHO cells, transient
Method: as §2, §3
as §1, with “Series resistance compensation was also used and set to 60-80%.” left out

Chain of TRPM8 (Q7Z2W7 whole entry, species assumed, the tested form may be a part): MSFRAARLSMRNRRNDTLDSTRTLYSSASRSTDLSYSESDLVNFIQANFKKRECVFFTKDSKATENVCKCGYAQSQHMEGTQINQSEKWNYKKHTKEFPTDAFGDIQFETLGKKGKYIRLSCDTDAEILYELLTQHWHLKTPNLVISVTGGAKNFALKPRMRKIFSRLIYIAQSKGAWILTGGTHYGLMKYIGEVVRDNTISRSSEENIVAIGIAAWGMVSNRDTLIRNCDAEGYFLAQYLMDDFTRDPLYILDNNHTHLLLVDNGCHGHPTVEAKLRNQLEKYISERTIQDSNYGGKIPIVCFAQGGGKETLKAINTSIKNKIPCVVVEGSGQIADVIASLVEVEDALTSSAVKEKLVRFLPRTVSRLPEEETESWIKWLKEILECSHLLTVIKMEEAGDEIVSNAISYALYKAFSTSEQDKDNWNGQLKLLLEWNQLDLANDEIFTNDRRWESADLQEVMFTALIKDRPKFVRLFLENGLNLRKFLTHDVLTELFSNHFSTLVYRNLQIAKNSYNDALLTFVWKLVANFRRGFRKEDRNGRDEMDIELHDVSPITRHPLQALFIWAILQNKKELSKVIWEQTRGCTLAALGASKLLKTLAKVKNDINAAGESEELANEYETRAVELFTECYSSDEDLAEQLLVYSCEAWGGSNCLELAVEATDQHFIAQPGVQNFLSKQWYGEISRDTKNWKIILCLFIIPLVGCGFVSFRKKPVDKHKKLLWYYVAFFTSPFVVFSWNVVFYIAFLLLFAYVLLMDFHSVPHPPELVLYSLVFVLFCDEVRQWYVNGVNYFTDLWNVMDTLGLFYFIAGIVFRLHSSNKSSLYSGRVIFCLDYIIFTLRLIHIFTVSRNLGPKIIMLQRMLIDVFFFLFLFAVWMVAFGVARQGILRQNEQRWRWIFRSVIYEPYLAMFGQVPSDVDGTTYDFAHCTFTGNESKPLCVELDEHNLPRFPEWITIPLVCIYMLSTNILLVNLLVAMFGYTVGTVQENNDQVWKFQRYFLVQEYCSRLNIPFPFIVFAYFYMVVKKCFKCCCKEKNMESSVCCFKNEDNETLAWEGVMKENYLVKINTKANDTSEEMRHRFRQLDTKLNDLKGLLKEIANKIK

For CC1CCC(C(C)C)C(O)C1 (centres unmarked) [Menthol], the “V1/2 after menthol binding” value (TRPM8) is given as −31 mV.

In the case of CC[N+](CC)(CC)CC [TEA, tetraethylammonium], the “effect on KCNQ2 current” value (KCNQ2 [1]) is reported as “completely blocked”.

With Oc1ccc(N=Nc2ccccn2)c(O)c1 [PAR, 4-(2)-(pyridylazo) resorcinol] the “effect on potentiation induced by sodium pyrithione plus ZnSO4” value (KCNQ2 [1]; 100 μM PAR) was “abolished” and the “effect on KCNQ2 channel activity, compound alone” value (KCNQ2 [1]; PAR itself) was “had no effect on KCNQ2 channel activity”.

For CNC1=Nc2ccc(Cl)cc2C(c2ccccc2)=[N+]([O-])C1 [chlordiazepoxide], the “increase of punished lever pressing” value [2] was > 50%.

For [Zn+2] [Zn^2+], the “effect on KCNQ2 channel, zinc ion alone” value (KCNQ2 [1]) was “cannot induce any detectable effect”.

With O=C1N(c2ccccc2)c2ccccc2C1(Cc1ccncc1)Cc1ccncc1 [linopirdine] the “effect on ZnPy-induced hyperpolarization” value (hippocampal neurons) was “completely abolished the hyperpolarization of membrane potential”, the “effect on KCNQ2 current” value (KCNQ2 [1]; 30 μM linopirdine, +50 mV) was “rapid inhibition” and the “effect on single channel activity” value (KCNQ2 [3]) was “fully blocked”.

For O=S(=O)([O-])[O-].[Zn+2] [ZnSO4], the “effect on KCNQ2 current amplitude of metal salt added to sodium pyrithione perfusion” value (“effect … to sodium pyrithione perfusion” below) (KCNQ2 [1]) was “marked increase in current amplitude”.

In the case of CCOC(=O)Nc1ccc(NCc2ccc(F)cc2)cc1N [Retigabine, retigabine], the current potentiation (KCNQ2(A306T)) is reported as < 50%, the current potentiation (KCNQ2(R207W)) is reported as < 50% and the current potentiation (KCNQ2(Y284C)) is reported as < 50%.

With O=S(=O)([O-])[O-].[Cu+2] [CuSO4] the “effect … to sodium pyrithione perfusion” value (KCNQ2 [1]) was “did not induce any potentiation”.

For [Na+].[O-][n+]1ccccc1[S-] [sodium pyrithione], the “effect on KCNQ2 current amplitude” value (KCNQ2 [1]) was “no change in current amplitude”.

In the case of Oc1c(I)cc(I)c2cccnc12 [5,7-diiodo-8-hydroxyquinoline], the “potentiation of KCNQ2 current amplitude by zinc ionophores” value (KCNQ2 [1]; +50 mV) is reported as “None displayed any potentiation effect on current amplitude”.

In the case of [Cl][Cd][Cl] [CdCl2], the “effect … to sodium pyrithione perfusion” value (KCNQ2 [1]) is reported as “did not induce any potentiation”.
